For this data set, the species on record is Rattus norvegicus. The experiment in a line: Mean sodium excretion in rats (Control/Drug treatment value); value 0.42/0.65. The class given is ADME, organism-based. The conditions noted are these: in vivo.

Each structure is given as a SMILES string.

Compound `CCCc1nc2c(nc1C)C(N)=NS(=O)(=O)N2CC` returned a Na of 1.5.

The values above are taken from ChEMBL document CHEMBL1125330, “N-substituted pyrazino[2,3-c][1,2,6]thiadiazine 2,2-dioxides. A new class of diuretics” (J Med Chem, 1992).
